The numbers were not newly measured in patent US20100260718A1, “IRF-4 AS A TUMOR SUPPRESSOR AND USES THEREOF” (Brandels University, priority 2007, published 2010), which cites them from elsewhere.

One series deals with IRF-4. The conditions noted are these: patients with CML, downregulated before treatment.
The subject of series [1] is primitive CML progenitors.

Turning to IFN-α, in the series on IRF-4, the IRF-4 expression result is recorded as “restored”. The “toxicity to the more primitive CML progenitors, relative to imatinib” value in series [1] is “higher toxicity”.
